Bases are written 5' to 3'; sugars and linkages follow in the same order, as letters with counts (s phosphorothioate, o phosphodiester; PS: all linkages phosphorothioate). C may stand for cytosine or 5-methylcytosine; the collection does not tell. l = locked nucleic acid (LNA); d = 2'-deoxy (DNA)
Target: HIF1A
Assay: HeLa, 100 nM transfected, 24 h, mean of 3
Conditions: ASO

Row | Sequence | caspase activation (% of PBS control)
1 | TGGCAAGCATCCTGTA (sugars lddllddddddllddl, PS) | 388
2 | TGGCAAGCATCCTGTA (sugars lddllddddddlldll, PS) | 388
3 | TGGCAAGCATCCTGTA (sugars lddllddddddllldl, PS) | 416
4 | TGGCAAGCATCCTGTA (sugars ldlddddddddddldl, PS) | 147
5 | TGGCAAGCATCCTGTA (sugars ldldddddddddlddl, PS) | 172
6 | TGGCAAGCATCCTGTA (sugars ldldddddddddldll, PS) | 252
7 | TGGCAAGCATCCTGTA (sugars ldldddddddddlldl, PS) | 281
8 | TGGCAAGCATCCTGTA (sugars ldlddddddddldddl, PS) | 160
9 | TGGCAAGCATCCTGTA (sugars ldlddddddddlddll, PS) | 218
10 | TGGCAAGCATCCTGTA (sugars ldlddddddddldldl, PS) | 206
11 | TGGCAAGCATCCTGTA (sugars ldlddddddddldlll, PS) | 195
12 | TGGCAAGCATCCTGTA (sugars ldlddddddddllddl, PS) | 197
13 | TGGCAAGCATCCTGTA (sugars ldlddddddddlldll, PS) | 227
14 | TGGCAAGCATCCTGTA (sugars ldlddddddddllldl, PS) | 254
15 | TGGCAAGCATCCTGTA (sugars ldldlddddddddddl, PS) | 204
16 | TGGCAAGCATCCTGTA (sugars ldldldddddddddll, PS) | 210
17 | TGGCAAGCATCCTGTA (sugars ldldlddddddddldl, PS) | 176
18 | TGGCAAGCATCCTGTA (sugars ldldlddddddddlll, PS) | 277
19 | TGGCAAGCATCCTGTA (sugars ldldldddddddlddl, PS) | 226
20 | TGGCAAGCATCCTGTA (sugars ldldldddddddldll, PS) | 290
21 | TGGCAAGCATCCTGTA (sugars ldldldddddddlldl, PS) | 218
22 | TGGCAAGCATCCTGTA (sugars ldldldddddddllll, PS) | 309
23 | TGGCAAGCATCCTGTA (sugars ldldlddddddldddl, PS) | 179
24 | TGGCAAGCATCCTGTA (sugars ldldlddddddlddll, PS) | 178

Row | Sequence | caspase activation (% of PBS control)
25 | TGGCAAGCATCCTGTA (sugars ldldlddddddldldl, PS) | 175
26 | TGGCAAGCATCCTGTA (sugars ldldlddddddldlll, PS) | 309
27 | TGGCAAGCATCCTGTA (sugars ldldlddddddllddl, PS) | 219
28 | TGGCAAGCATCCTGTA (sugars ldldlddddddlldll, PS) | 263
29 | TGGCAAGCATCCTGTA (sugars ldldlddddddllldl, PS) | 261
30 | TGGCAAGCATCCTGTA (sugars ldldlddddddlllll, PS) | 342
31 | TGGCAAGCATCCTGTA (sugars ldlldddddddddldl, PS) | 297
32 | TGGCAAGCATCCTGTA (sugars ldllddddddddlddl, PS) | 438
33 | TGGCAAGCATCCTGTA (sugars ldllddddddddldll, PS) | 466
34 | TGGCAAGCATCCTGTA (sugars ldllddddddddlldl, PS) | 412
35 | TGGCAAGCATCCTGTA (sugars ldlldddddddldddl, PS) | 229
36 | TGGCAAGCATCCTGTA (sugars ldlldddddddlddll, PS) | 306
37 | TGGCAAGCATCCTGTA (sugars ldlldddddddldldl, PS) | 400
38 | TGGCAAGCATCCTGTA (sugars ldlldddddddldlll, PS) | 435
39 | TGGCAAGCATCCTGTA (sugars ldlldddddddllddl, PS) | 360
40 | TGGCAAGCATCCTGTA (sugars ldlldddddddlldll, PS) | 381
41 | TGGCAAGCATCCTGTA (sugars ldlldddddddllldl, PS) | 438
42 | TGGCAAGCATCCTGTA (sugars ldlllddddddddldl, PS) | 448
43 | TGGCAAGCATCCTGTA (sugars ldllldddddddlddl, PS) | 419
44 | TGGCAAGCATCCTGTA (sugars ldllldddddddldll, PS) | 459
45 | TGGCAAGCATCCTGTA (sugars ldllldddddddlldl, PS) | 440
46 | TGGCAAGCATCCTGTA (sugars ldlllddddddldddl, PS) | 417
47 | TGGCAAGCATCCTGTA (sugars ldlllddddddlddll, PS) | 410
48 | TGGCAAGCATCCTGTA (sugars ldlllddddddldldl, PS) | 455

Row | Sequence | caspase activation (% of PBS control)
49 | TGGCAAGCATCCTGTA (sugars ldlllddddddldlll, PS) | 476
50 | TGGCAAGCATCCTGTA (sugars ldlllddddddllddl, PS) | 495
51 | TGGCAAGCATCCTGTA (sugars ldlllddddddlldll, PS) | 437
52 | TGGCAAGCATCCTGTA (sugars ldlllddddddllldl, PS) | 490
53 | TGGCAAGCATCCTGTA (sugars lldddddddddldldl, PS) | 423
54 | TGGCAAGCATCCTGTA (sugars llddlddddddddldl, PS) | 215
55 | TGGCAAGCATCCTGTA (sugars llddldddddddlddl, PS) | 354
56 | TGGCAAGCATCCTGTA (sugars llddldddddddldll, PS) | 401
57 | TGGCAAGCATCCTGTA (sugars llddldddddddlldl, PS) | 341
58 | TGGCAAGCATCCTGTA (sugars llddlddddddldddl, PS) | 383
59 | TGGCAAGCATCCTGTA (sugars llddlddddddlddll, PS) | 455
60 | TGGCAAGCATCCTGTA (sugars llddlddddddldldl, PS) | 390
61 | TGGCAAGCATCCTGTA (sugars llddlddddddldlll, PS) | 425
62 | TGGCAAGCATCCTGTA (sugars llddlddddddllddl, PS) | 385
63 | TGGCAAGCATCCTGTA (sugars llddlddddddlldll, PS) | 446
64 | TGGCAAGCATCCTGTA (sugars llddlddddddllldl, PS) | 397
65 | TGGCAAGCATCCTGTA (sugars lldldddddddddldl, PS) | 522
66 | TGGCAAGCATCCTGTA (sugars lldlddddddddlddl, PS) | 604
67 | TGGCAAGCATCCTGTA (sugars lldlddddddddldll, PS) | 502
68 | TGGCAAGCATCCTGTA (sugars lldlddddddddlldl, PS) | 461
69 | TGGCAAGCATCCTGTA (sugars lldldddddddldddl, PS) | 322
70 | TGGCAAGCATCCTGTA (sugars lldldddddddlddll, PS) | 460
71 | TGGCAAGCATCCTGTA (sugars lldldddddddldldl, PS) | 429
72 | TGGCAAGCATCCTGTA (sugars lldldddddddldlll, PS) | 423

Row | Sequence | caspase activation (% of PBS control)
73 | TGGCAAGCATCCTGTA (sugars lldldddddddllddl, PS) | 309
74 | TGGCAAGCATCCTGTA (sugars lldldddddddlldll, PS) | 410
75 | TGGCAAGCATCCTGTA (sugars lldldddddddllldl, PS) | 419
76 | TGGCAAGCATCCTGTA (sugars lldllddddddddldl, PS) | 418
77 | TGGCAAGCATCCTGTA (sugars lldlldddddddlddl, PS) | 459
78 | TGGCAAGCATCCTGTA (sugars lldlldddddddldll, PS) | 454
79 | TGGCAAGCATCCTGTA (sugars lldlldddddddlldl, PS) | 362
80 | TGGCAAGCATCCTGTA (sugars lldllddddddldddl, PS) | 385
81 | TGGCAAGCATCCTGTA (sugars lldllddddddlddll, PS) | 475
82 | TGGCAAGCATCCTGTA (sugars lldllddddddldldl, PS) | 483
83 | TGGCAAGCATCCTGTA (sugars lldllddddddldlll, PS) | 438
84 | TGGCAAGCATCCTGTA (sugars lldllddddddllddl, PS) | 354
85 | TGGCAAGCATCCTGTA (sugars lldllddddddlldll, PS) | 493
86 | TGGCAAGCATCCTGTA (sugars lldllddddddllldl, PS) | 474
87 | TGGCAAGCATCCTGTA (sugars lllddddddddldldl, PS) | 385
88 | TGGCAAGCATCCTGTA (sugars llldlddddddddldl, PS) | 350
89 | TGGCAAGCATCCTGTA (sugars llldldddddddlddl, PS) | 341
90 | TGGCAAGCATCCTGTA (sugars llldldddddddldll, PS) | 367
91 | TGGCAAGCATCCTGTA (sugars llldldddddddlldl, PS) | 367
92 | TGGCAAGCATCCTGTA (sugars llldlddddddldddl, PS) | 253
93 | TGGCAAGCATCCTGTA (sugars llldlddddddlddll, PS) | 348
94 | TGGCAAGCATCCTGTA (sugars llldlddddddldldl, PS) | 350
95 | TGGCAAGCATCCTGTA (sugars llldlddddddldlll, PS) | 428
96 | TGGCAAGCATCCTGTA (sugars llldlddddddllddl, PS) | 268

Source: the OligoGym collection
